Where a SMILES comes first, the peptide text is derived from it. Bridges are numbered along the chain shown (N, C = ends).
How the values were obtained:
[1] = Degree of fold by FUV-ECD (CCA+ ensemble deconvolution); assay type: physicochemical; conditions: for Degree of the fold by FUV-ECD: T=15 °C, c(protein)=20–30 μM, pH≈7, joint CCA+ deconvolution of 204 T-dependent FUV-ECD spectra; for difference in folded fraction between SS variant and parent: at 4 °C, FUV-ECD ensemble deconvolution
Source text: Circular dichroism (CD) spectroscopy is increasingly recognized as very sensitive indicator of protein conformation,58, 59 relying on a plethora of electronic transitions. The FUV‐ECD spectra of Trp‐cage proteins (e.g., Exenatide, E19, E19_SS) are typically the weighted sums of the C‐ (folded and highly helical) and U‐type (unfolded) base curves (Figure 2 A), as assigned and verified by means of NMR spectroscopy.60, 61 As the temperature increases, the shape of the FUV‐ECD spectra changes: those of the parent proteins—E2, E5, E11, and E19—acquire more and more U‐type characteristics, as they unfold gradually. The temperature‐dependent FUV‐ECD spectra for all four SS bond enforced model peptides were recorded between 5 and 85 °C (in steps of 5 °C, resulting in 17 spectra for each protein; Figure S1 in the Supporting Information). Aside from E2_SS, the SS‐bond‐containing mutants have similar FUV‐ECD spectra to that of their parent proteins at low temperatures. On the other hand, because the SS bond makes the 3D folds of SS variants more rigid, they preserve their C‐type characteristics better and delay unfolding, even at higher temperatures. Once the SS bond is reduced (see below for details), the spectral properties of the SH variants revert to those of the parent proteins. Their 3D‐scaffold compactness decreases as the temperature increases; this is less apparent in the case of E2 and E2_2SH because they both already present an ensemble of dynamic backbone structures at 5 °C.
Ensemble deconvolution62, 63 of the 204 (12×17) ECD spectra, f(λ, T), made the quantitative analysis of the relative abundance of secondary structural elements belonging to each peptide in each state possible because the pure ECD curves were successfully assigned.60, 64, 65, 66 The results in Figure 2 B indicate that 1) the SS bond stabilizes the less folded protein scaffolds more effectively, for example, whereas the difference at 4 °C between the E2 and E2_SS folded fraction is 48 %, the same difference between E5 and E5_SS is 14 %; in the case of E11 and E11_SS, it is only 28 %, and for E19 and E19_SS it is 7 % (Figure 2 D). 2) The ratio of the folded, helical components increases upon going from E2 to E5 and E11; however, the compact α‐helical content of E19_SS, E19_2SH, and E19 is lower than those of E11_SS, E11_2SH, and E11 because the unfolded eight‐residue‐long N‐terminal part elevates the overall backbone dynamics, which destabilizes the compact 3D fold. 3) All four reduced proteins (E2_2SH, E5_2SH, E11_2SH, E19_2SH) have a higher helix content (≈7–15 %) than that of the parent proteins over the entire temperature range. 4) The 3D folds stabilized by SS bonds are less sensitive to temperature (Figure 2 C, D).
ECD: FUV‐ECD spectra were recorded on a Jasco J810 spectrophotometer by using a 1.0 mm path length cuvette with protein concentrations of 20–30 μM. Data accumulation was performed over a range of 185–260 nm, with 0.2 nm step resolution at a scan rate of 50 nm min^−1 with a 1 nm bandwidth. The spectral accumulations were resolved between 5 and 85 °C in steps of 5 °C. The temperature was controlled by using a Peltier‐type heating system. Each spectrum baseline was processed by subtracting the solvent spectrum from that of the protein and the raw ellipticity data were converted into mean residue molar ellipticity units, [Θ]MR.

[2] = SS bond reduction by DTT monitored by 1H NMR; assay type: physicochemical; conditions: 1.7 mM protein, twofold excess of DTT, 15 °C; for DTT: Conversion rate / DTT: Elapsed time to steady state: pH 7; for DTT: t1/2 of reduction: pH 7, calculated from k1 (Eq. 12); for DTT: k1: pH 7, parameter estimation (phase 1 data)
Experimental: An appropriate reduction protocol was required to unambiguously determine the 3D structures of the above‐introduced pure reduced states. Thus, in agreement with the above discussion, only mild conditions (15 °C and twofold molar excess of […]) were used for the reduction of the four different miniproteins. Determining the structural properties and reduction rates under the same conditions allowed us to elucidate the basis of the observed differences in the reduction rates. […] It appears as if “cutting back” on the α‐helical segment strongly affects the SS bond reducibility, even though the SS bonds of all four models are near the surfaces (Figure 7 A). To our great surprise, we recorded three orders of magnitude differences between the reduction rate constants (Table 3). Whereas the reduction of E2_SS is still extremely fast, tE2_SS/1/2 <≈1 min, that of E5_SS occurs on the timescale of minutes: tE5_SS/1/2 ≈14 min. […] The conversion rate was close to complete for the shorter peptide of E2_SS, whereas the reduction of E19_SS was only 88 % complete. The kinetic parameters of all four model proteins were determined by using a twofold molar excess of DTT, at pH 7, and T=15 °C.
Monitoring reduction kinetics: Peptide samples were prepared between 0.8 and 1.8 mM in 50 mM NaH2PO4–Na2HPO4 buffer (600 μL, pH 6.95), with 10 % D2O. A 0.1 M solution of NaOH was used to set the pH to 7. Sodium trimethylsilylpropanesulfonate (DSS) was added as the internal proton reference standard, set to δ=0.0 ppm under all conditions. ^1H,^1H 2D homonuclear spectra were recorded for the oxidized peptide; thereafter, upon the addition of a different excess of 0.5 M TCEP or DTT, reduction was observed by recording a series of 1D ^1H spectra (ns=64 or 128 scans). Finally, at the end point, ^1H,^1H homonuclear 2D spectra were recorded on the reduced peptide. Data sets were processed by using TopSpin 3.2 software. The conversion rate was determined by using the relative integral of the Trp Hϵ1 signal in the oxidized (IntOX) and reduced (IntRED) form. Each integral was normalized to the integral of DSS. The concentrations were determined by the ratio of the oxidized and reduced integrals and the initial protein concentration.
Parameter estimation: Kinetic parameter estimation was based on the integral of selected NMR signals considered to be proportional to the concentration of the relevant species. The mechanism taken into account is that given by Equations (8), (9), (10), (11):(8) SS+Red→k12SH+Ox (9) 2SH+O2→k2SS (10) [drawing 1] (11) [drawing 2]
in which SS is the […] model protein with an intramolecular S−S bond; 2 SH is the same protein with the S−S bond reduced to two −SH groups; and the symbol Ø means a different phase from that of the reaction mixture, that is, the polymer aggregate as a sink in the first case and the gas phase as a source in the second case.
For parameter estimation, the COPASI 4.16 (Build 104) Biochemical System Simulator software (http://copasi.org/) was used, with the parameter estimation option of the Levenberg–Marquardt method.
To determine the half‐life and initial concentration of the SS species, a kinetic analysis of the temporal evolution of the reactions was performed. […] From the kinetic analysis, the initial concentration of oxygen ([O2]0) could also be estimated, except for one case in which the uncertainty of this parameter was very large, due to the lack of sufficient experimental data.
Because reduction follows second‐order kinetics, the half‐life (t 1/2) of model proteins also depends on the actual concentration of the RA in the reaction mixture [Eq. (12):(12) t1/2=1/k1(cRed,0-cSS,0)ln2-cSS,0/cRed,0

Structure (SMILES) | Degree of the fold by FUV-ECD [1] | difference in folded fraction between SS variant and parent [1] | DTT: Conversion rate [2] | DTT: Elapsed time to steady state [2] | DTT: t1/2 of reduction [2] | DTT: k1 [2]
CC[C@H](C)[C@@H]1NC(=O)[C@H](Cc2ccc(O)cc2)NC(=O)[C@H](CC(C)C)NC(=O)[C@H](CCCNC(=N)N)NC(=O)[C@H](C(C)C)NC(=O)[C@@H](N)CSSC[C@@H](C(=O)O)NC(=O)[C@@H]2CCCN2C(=O)[C@@H]2CCCN2C(=O)[C@@H]2CCCN2C(=O)[C@H](CCCNC(=N)N)NC(=O)CNC(=O)[C@H](CO)NC(=O)[C@H](CO)NC(=O)[C@@H]2CCCN2C(=O)CNC(=O)CNC(=O)[C@H](CC(=O)O)NC(=O)[C@H](CCCCN)NC(=O)[C@H](CC(C)C)NC(=O)[C@H](Cc2c[nH]c3ccccc23)NC(=O)[C@H](CCC(N)=O)NC1=O [E2_SS] (H-CVRLYIQWLKDGGPSSGRPPPC-OH; disulfide 1-22) | 51.8% | 48% | 100% | 5 h | 1.03 h | 0.0673 M⁻¹ s⁻¹
CC[C@H](C)[C@@H]1NC(=O)[C@H](Cc2ccc(O)cc2)NC(=O)[C@H](CC(C)C)NC(=O)[C@H](CCCNC(=N)N)NC(=O)[C@H](C(C)C)NC(=O)[C@@H](NC(=O)[C@H](CCC(=O)O)NC(=O)[C@H](CCC(=O)O)NC(=O)[C@@H](N)CCC(=O)O)CSSC[C@@H](C(=O)O)NC(=O)[C@@H]2CCCN2C(=O)[C@@H]2CCCN2C(=O)[C@@H]2CCCN2C(=O)[C@H](CCCNC(=N)N)NC(=O)CNC(=O)[C@H](CO)NC(=O)[C@H](CO)NC(=O)[C@@H]2CCCN2C(=O)CNC(=O)CNC(=O)[C@H](CC(=O)O)NC(=O)[C@H](CCCCN)NC(=O)[C@H](CC(C)C)NC(=O)[C@H](Cc2c[nH]c3ccccc23)NC(=O)[C@H](CCC(N)=O)NC1=O [E5_SS] (H-EEECVRLYIQWLKDGGPSSGRPPPC-OH; disulfide 4-25) | 63.4% | 14% | 95% | 9 to 10 h | 1.92 h | 0.0363 M⁻¹ s⁻¹
CC[C@H](C)[C@@H]1NC(=O)[C@H](Cc2ccc(O)cc2)NC(=O)[C@H](CC(C)C)NC(=O)[C@H](CCCNC(=N)N)NC(=O)[C@H](C(C)C)NC(=O)[C@@H](NC(=O)[C@H](CCC(=O)O)NC(=O)[C@H](CCC(=O)O)NC(=O)[C@H](CCC(=O)O)NC(=O)[C@H](CCSC)NC(=O)[C@H](CCC(N)=O)NC(=O)[C@H](CCCCN)NC(=O)[C@H](CO)NC(=O)[C@H](CC(C)C)NC(=O)[C@@H](N)CC(=O)O)CSSC[C@@H](C(=O)O)NC(=O)[C@@H]2CCCN2C(=O)[C@@H]2CCCN2C(=O)[C@@H]2CCCN2C(=O)[C@H](CCCNC(=N)N)NC(=O)CNC(=O)[C@H](CO)NC(=O)[C@H](CO)NC(=O)[C@@H]2CCCN2C(=O)CNC(=O)CNC(=O)[C@H](CC(=O)O)NC(=O)[C@H](CCCCN)NC(=O)[C@H](CC(C)C)NC(=O)[C@H](Cc2c[nH]c3ccccc23)NC(=O)[C@H](CCC(N)=O)NC1=O [E11_SS] (H-DLSKQMEEECVRLYIQWLKDGGPSSGRPPPC-OH; disulfide 10-31) | 96.0% | 28% | ≈84% | 138 h | 27.65 h | 0.00253 M⁻¹ s⁻¹

— PMC7079008, “Compactness of Protein Folds Alters Disulfide‐Bond Reducibility by Three Orders of Magnitude: A Comprehensive Kinetic Case Study on the Reduction of Differently Sized Tryptophan Cage Model Proteins” (Chembiochem, 2019)
